These are literature values, as cited in the CATMoS acute toxicity set (Mansouri et al. 2021).

The nature of the data set: rat acute oral toxicity. The conditions noted are these: in vivo.
Regarding `COc1cc(Cc2cnc(N)nc2N)cc(OC)c1Br`, the LD50 is 2510 mg/kg.
As to `c1ccc([Se]c2ccccc2)cc1`, the LD50 is 360 mg/kg.
Regarding `CC(C)c1cccc(OC(=O)N(C)N=O)c1`, the median lethal dose (LD50) was 400 mg/kg.
On to `C=CC(=O)OCC[N+](C)(C)C`, for which the LD50 is 500 mg/kg.
As to `Cc1cn([C@H]2C=C[C@@H](CO)O2)c(=O)[nH]c1=O`, the LD50 is 4000 mg/kg.
As for `S=C1NCCNC(=S)S1`, the 50% lethal dose (LD50) is 240 mg/kg.
For the molecule `CCNc1nc(NC(C)CC)nc(OC)n1` (stereo not given), the LD50 is 1000 mg/kg.
In the case of `OCCI`, the 50% lethal dose (LD50) is 50 mg/kg.
As to `CCOP(=O)(OC=CCl)OCC`, the LD50 was 7 mg/kg.
In the case of `COP(=S)(OC)SCSc1ccccc1`, the LD50 is 16 mg/kg.
Regarding `CCOC(=O)C1=C(C)NC(C)=C(C(=O)OCC)C1c1ccccc1/C=C/C(=O)OC(C)(C)C`, the LD50 was 880 mg/kg.
`CCCCN(CCCC)CCOc1ccnc(N)n1`: the LD50 was 1000 mg/kg.
Consider `CCNC(=O)Nc1ncc([N+](=O)[O-])s1`, for which the LD50 is 2150 mg/kg.
`CC(C)CCCCCOC(=O)CS`: the 50% lethal dose (LD50) is 348 mg/kg.
Take `CC(C)=CCC(CCN1CCOCC1)(C(N)=O)c1cccc2ccccc12` (stereo not given): the LD50 was 177 mg/kg.
Turning to `CCCCCCCCCCCCNC(N)=S`, the median lethal dose (LD50) was 1000 mg/kg.
For the molecule `CCC(C)OC(C[n+]1ccccc1)c1cccc(Cl)c1` (stereo not given), the LD50 is 250 mg/kg.
Turning to `CC(C=O)c1ccccc1` (stereo not given), the LD50 was 2800 mg/kg.
Consider `O=C(Cc1cccs1)N[C@@H]1C(=O)N2C(C(=O)[O-])=C(C[n+]3ccccc3)CS[C@H]12`, for which the 50% lethal dose (LD50) was 2500 mg/kg.
On to `C1COCCOCCOCCO1`, for which the LD50 was 2830 mg/kg.
On to `CC(Cl)CCl` (stereo not given), for which the median lethal dose (LD50) was 1950 mg/kg.
Consider `CS(=O)(=O)OCCN(CCOS(C)(=O)=O)S(C)(=O)=O`, for which the LD50 was 300 mg/kg.
`CCC(COCC1CO1)(COCC1CO1)COCC1CO1` (stereo not given): the LD50 was 3400 mg/kg.
For `CCOC(C1=NCCCN1)c1c(Cl)cccc1Cl` (stereo not given), the 50% lethal dose (LD50) is 625 mg/kg.
For the molecule `O=C1C(Cc2ccccc2)C(=O)N(c2ccccc2)N1c1ccccc1`, the median lethal dose (LD50) was 297 mg/kg.
As to `CC(C)(C)[C@H](O)/C(=C\c1ccc(Cl)cc1)n1cncn1`, the 50% lethal dose (LD50) is 430 mg/kg.
For `Nc1nc2cc(Cl)c(O)cc2o1`, the 50% lethal dose (LD50) is 1070 mg/kg.
With `CCCCOCCOCCOCCCC`, the LD50 is 3900 mg/kg.
Turning to `CCNC(=O)Cc1ccccc1`, the LD50 is 756 mg/kg.
As for `CCCCCCCCCOC(=O)C1=CNC=C(C(=O)NC2CCCC2)C1c1ccccc1[N+](=O)[O-]` (stereo not given), the LD50 is 10 mg/kg.
Consider `OC(CNc1ccccn1)c1ccccc1` (stereo not given), for which the LD50 is 756 mg/kg.
Regarding `CC(CO)Oc1ccccc1` (stereo not given), the LD50 was 2830 mg/kg.
Turning to `CCOCCOCCOC(C)=O`, the LD50 was 11000 mg/kg.
On to `CCOC(=O)C1=C(C)NC(C)=C(C(=O)OCC)C1c1ccccc1C(F)(F)F`, for which the 50% lethal dose (LD50) is 1220 mg/kg.
Consider `CCOC(C1=NCC(CC)(CC)CN1)c1ccc(Cl)cc1` (stereo not given), for which the LD50 is 375 mg/kg.
Turning to `Nc1cccc(Cl)c1`, the LD50 was 256 mg/kg.
For `Cc1ccc(C(C)(C)C)cc1`, the 50% lethal dose (LD50) was 1560 mg/kg.
With `O=C(C=Cc1ccccc1O)OC(=O)C=Cc1ccccc1O`, the LD50 is 1510 mg/kg.
Take `O=c1ccc2cc(CCCCN3CCN(c4ccccc4)CC3)ccc2[nH]1`: the LD50 was 500 mg/kg.
As for `CCC(CC)C(=O)OCC(Cl)(Cl)Cl`, the median lethal dose (LD50) is 900 mg/kg.
On to `O=C(O)C(F)(F)C(F)(F)F`, for which the LD50 is 1770 mg/kg.
Consider `CCOP(=O)(OCC)N(SN(C)C(=O)ON=C(C)SC)C(C)C`, for which the 50% lethal dose (LD50) was 100 mg/kg.
For the molecule `CCc1cccc2c3c([nH]c12)C(CC)(CC(=O)O)OCC3` (stereo not given), the median lethal dose (LD50) was 94 mg/kg.
Regarding `CCCCNC(=S)N(CCCC)CCCC`, the median lethal dose (LD50) was 3000 mg/kg.
Regarding `CC(C)C1=CCC(CCOC=O)=CC1`, the LD50 is 3570 mg/kg.
As for `O=c1[nH]c(=O)n([C@H]2C[C@H](O)[C@@H](CO)O2)cc1Br`, the LD50 is 8400 mg/kg.
As to `CC(c1ccccc1)N(C)N=O` (stereo not given), the 50% lethal dose (LD50) was 600 mg/kg.
`FC(F)(F)c1nc2c(Cl)c(Br)c(Cl)cc2[nH]1`: the LD50 was 8.78 mg/kg.
For the molecule `O=C(NN=C1C=CC(=NO)C=C1)c1ccccc1`, the 50% lethal dose (LD50) was 100 mg/kg.
As for `Cc1ccc(S(=O)(=O)Oc2cc(S(=O)(=O)O)cc3cc(S(=O)(=O)O)cc(N)c23)cc1`, the LD50 is 11500 mg/kg.
On to `CCOP(=O)(N=C1SCCS1)OCC`, for which the 50% lethal dose (LD50) is 8.9 mg/kg.
With `CN1CCC(N(Cc2cccs2)c2ccccc2)CC1`, the LD50 is 1060 mg/kg.
Take `CN(C)c1ccc(N=NS(=O)(=O)O)cc1`: the median lethal dose (LD50) is 60 mg/kg.
`COc1ccc2c(c1)C(N1CCN(C)CC1)=Cc1ccccc1O2`: the median lethal dose (LD50) is 822 mg/kg.
Consider `CN(CCO)c1nc(Nc2ccccc2)nc(Nc2ccc(/C=C/c3ccc(Nc4nc(Nc5ccccc5)nc(N(C)CCO)n4)cc3S(=O)(=O)O)c(S(=O)(=O)O)c2)n1`, for which the LD50 was 6890 mg/kg.
As for `O=C1c2cccc(S(=O)(=O)O)c2C(=O)c2cccc(S(=O)(=O)O)c21`, the median lethal dose (LD50) is 2360 mg/kg.
As to `O=C(CCN1CCN2c3ccccc3CCC2C1)Cc1ccc(F)cc1` (stereo not given), the 50% lethal dose (LD50) was 800 mg/kg.
For the molecule `CCCOc1cccc(C)c1N(COCC)C(=O)CCl`, the 50% lethal dose (LD50) is 2600 mg/kg.
As for `O=CN(c1ncnc2c1ncn2CC1CC1)C1CC1`, the LD50 is 500 mg/kg.
Turning to `O=[N+]([O-])c1ccccc1-c1ccccc1`, the 50% lethal dose (LD50) was 1230 mg/kg.
